Assay results from publication PMC3747596 (PLoS ONE, 2013).
pKi: −log10 of the molar value. Where two headings read alike, the source gives them in different places.

What was measured:
α2B = biological target: T1, α2B (Homo sapiens, UniProt P18089); assay: Radioligand displacement, α2B; assay type: binding
T1 sequence (P18089 1-450): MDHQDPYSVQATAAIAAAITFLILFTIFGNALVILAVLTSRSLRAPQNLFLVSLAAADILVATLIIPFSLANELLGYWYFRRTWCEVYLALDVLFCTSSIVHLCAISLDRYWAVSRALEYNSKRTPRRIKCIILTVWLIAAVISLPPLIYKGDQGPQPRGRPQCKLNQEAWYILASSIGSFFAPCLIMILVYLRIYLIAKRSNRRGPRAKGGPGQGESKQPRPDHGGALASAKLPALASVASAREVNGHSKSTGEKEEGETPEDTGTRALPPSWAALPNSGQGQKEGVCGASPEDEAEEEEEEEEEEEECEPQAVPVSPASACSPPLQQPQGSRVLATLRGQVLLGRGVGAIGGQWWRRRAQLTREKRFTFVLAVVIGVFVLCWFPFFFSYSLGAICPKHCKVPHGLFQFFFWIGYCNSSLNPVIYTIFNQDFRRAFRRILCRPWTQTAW

D5 = D5 (Homo sapiens, UniProt P21918); assay: Radioligand displacement, D5; assay type: binding
Sequence of D5 (P21918 whole entry): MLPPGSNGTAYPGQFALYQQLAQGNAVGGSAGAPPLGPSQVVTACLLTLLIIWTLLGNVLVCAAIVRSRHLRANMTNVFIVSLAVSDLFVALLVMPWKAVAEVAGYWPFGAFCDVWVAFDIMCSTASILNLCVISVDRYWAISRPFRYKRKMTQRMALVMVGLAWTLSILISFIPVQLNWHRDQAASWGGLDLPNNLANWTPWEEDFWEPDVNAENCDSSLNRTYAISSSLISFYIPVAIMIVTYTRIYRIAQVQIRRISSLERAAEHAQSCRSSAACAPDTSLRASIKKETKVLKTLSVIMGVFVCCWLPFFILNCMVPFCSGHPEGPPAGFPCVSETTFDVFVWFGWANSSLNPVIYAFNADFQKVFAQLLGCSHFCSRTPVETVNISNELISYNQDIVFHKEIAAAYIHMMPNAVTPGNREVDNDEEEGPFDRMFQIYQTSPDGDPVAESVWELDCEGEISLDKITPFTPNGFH

GABAA = assay: Radioligand displacement, GABAA; assay type: binding; conditions: [3H] radioligand Muscimol; Rat, forebrain
GABAA (BZP) = assay: Radioligand displacement, GABAA (BZP); assay type: binding; conditions: [3H] radioligand Flunitrazepam; Rat, Brain
M3 = M3 (Homo sapiens, UniProt P20309); assay: Radioligand displacement, M3; assay type: binding
Sequence of M3 (P20309 whole entry): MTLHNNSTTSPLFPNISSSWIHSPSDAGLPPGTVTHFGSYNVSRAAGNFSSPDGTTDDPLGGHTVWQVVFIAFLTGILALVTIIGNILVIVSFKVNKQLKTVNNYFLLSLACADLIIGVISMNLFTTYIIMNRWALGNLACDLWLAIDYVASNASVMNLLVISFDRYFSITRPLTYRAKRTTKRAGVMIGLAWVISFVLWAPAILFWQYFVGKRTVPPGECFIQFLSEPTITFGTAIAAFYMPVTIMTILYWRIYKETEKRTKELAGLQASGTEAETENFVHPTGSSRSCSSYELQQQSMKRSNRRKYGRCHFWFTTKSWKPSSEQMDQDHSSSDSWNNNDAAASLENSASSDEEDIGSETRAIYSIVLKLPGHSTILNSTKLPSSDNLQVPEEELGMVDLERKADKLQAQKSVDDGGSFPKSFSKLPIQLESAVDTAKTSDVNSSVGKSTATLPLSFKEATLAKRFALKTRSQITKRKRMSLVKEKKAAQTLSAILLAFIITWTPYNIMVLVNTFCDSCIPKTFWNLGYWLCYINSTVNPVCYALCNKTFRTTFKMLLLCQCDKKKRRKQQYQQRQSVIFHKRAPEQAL

σ2 = biological target: T2, σ2 (Rattus norvegicus, UniProt Q5U3Y7); assay: Radioligand displacement, σ2; assay type: binding
T2 sequence (Q5U3Y7 1-176): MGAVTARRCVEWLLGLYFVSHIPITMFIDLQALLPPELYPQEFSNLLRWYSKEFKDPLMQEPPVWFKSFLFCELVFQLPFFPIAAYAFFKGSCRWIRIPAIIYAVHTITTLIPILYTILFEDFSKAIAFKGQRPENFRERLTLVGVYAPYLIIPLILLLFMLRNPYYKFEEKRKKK

D1 = D1 (Homo sapiens, UniProt P21728); assay: Radioligand displacement, D1; assay type: binding
Sequence of D1 (P21728 whole entry): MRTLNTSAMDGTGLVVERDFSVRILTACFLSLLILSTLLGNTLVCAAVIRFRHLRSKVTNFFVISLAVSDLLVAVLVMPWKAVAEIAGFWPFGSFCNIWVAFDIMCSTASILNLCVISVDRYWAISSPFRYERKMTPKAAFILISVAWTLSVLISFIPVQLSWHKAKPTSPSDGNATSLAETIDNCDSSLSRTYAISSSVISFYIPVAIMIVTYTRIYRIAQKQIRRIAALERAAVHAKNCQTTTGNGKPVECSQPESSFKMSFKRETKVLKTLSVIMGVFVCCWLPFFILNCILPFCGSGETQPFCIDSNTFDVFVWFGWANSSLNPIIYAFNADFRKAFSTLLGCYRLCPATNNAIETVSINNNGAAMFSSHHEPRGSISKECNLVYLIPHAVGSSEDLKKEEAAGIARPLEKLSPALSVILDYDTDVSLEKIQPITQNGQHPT

DAT = DAT (Homo sapiens, UniProt Q01959); assay: Radioligand displacement, DAT
Sequence of DAT (Q01959 whole entry): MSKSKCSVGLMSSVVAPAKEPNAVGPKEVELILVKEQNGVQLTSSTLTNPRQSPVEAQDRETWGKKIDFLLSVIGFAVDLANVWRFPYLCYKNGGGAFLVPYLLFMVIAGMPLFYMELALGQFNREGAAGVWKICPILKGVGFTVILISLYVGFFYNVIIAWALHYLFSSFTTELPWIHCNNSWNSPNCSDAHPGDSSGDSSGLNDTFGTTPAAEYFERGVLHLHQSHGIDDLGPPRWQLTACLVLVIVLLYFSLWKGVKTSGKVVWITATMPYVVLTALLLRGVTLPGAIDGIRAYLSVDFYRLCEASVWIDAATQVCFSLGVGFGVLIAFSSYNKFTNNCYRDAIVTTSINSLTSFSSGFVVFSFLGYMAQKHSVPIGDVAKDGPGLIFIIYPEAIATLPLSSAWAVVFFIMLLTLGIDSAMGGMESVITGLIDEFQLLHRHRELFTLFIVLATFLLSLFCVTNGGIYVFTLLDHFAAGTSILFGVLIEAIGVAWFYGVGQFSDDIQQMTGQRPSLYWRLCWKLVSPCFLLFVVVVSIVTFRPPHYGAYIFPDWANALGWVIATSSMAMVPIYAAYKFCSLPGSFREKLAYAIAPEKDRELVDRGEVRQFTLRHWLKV

5-HT7 = 5-HT7 (Homo sapiens, UniProt P34969); assay: Radioligand displacement, 5-HT7; assay type: binding
Sequence of 5-HT7 (P34969 whole entry): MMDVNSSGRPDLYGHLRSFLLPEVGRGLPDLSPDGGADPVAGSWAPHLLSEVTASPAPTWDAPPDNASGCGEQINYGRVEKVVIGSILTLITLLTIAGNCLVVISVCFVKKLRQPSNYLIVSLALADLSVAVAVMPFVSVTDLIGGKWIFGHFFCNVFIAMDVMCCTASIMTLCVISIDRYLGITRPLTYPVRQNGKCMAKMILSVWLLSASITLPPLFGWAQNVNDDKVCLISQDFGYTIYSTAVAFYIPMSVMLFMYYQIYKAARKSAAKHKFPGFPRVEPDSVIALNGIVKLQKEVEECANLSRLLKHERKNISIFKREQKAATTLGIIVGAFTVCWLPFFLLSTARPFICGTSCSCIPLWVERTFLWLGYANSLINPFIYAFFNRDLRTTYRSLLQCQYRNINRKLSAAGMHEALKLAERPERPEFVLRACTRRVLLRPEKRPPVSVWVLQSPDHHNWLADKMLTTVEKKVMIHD

[1] = biological target: T3, α1A-adrenoceptor (α1A-AR) (Homo sapiens, UniProt P35348); assay: Radioligand displacement, α1A; assay type: binding
T3 sequence (P35348 1-466): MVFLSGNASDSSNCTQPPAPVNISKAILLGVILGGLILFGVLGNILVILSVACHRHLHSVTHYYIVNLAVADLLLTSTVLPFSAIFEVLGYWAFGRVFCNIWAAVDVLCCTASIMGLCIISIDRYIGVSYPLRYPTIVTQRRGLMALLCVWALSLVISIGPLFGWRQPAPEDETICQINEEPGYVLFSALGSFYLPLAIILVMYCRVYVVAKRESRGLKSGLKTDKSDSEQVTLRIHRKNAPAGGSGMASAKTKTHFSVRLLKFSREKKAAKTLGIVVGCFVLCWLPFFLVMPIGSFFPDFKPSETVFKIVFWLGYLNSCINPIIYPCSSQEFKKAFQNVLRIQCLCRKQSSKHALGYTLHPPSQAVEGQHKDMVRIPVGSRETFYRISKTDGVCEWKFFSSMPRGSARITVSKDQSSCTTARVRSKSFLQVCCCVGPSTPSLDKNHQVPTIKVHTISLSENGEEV

β1 = β1 (Homo sapiens, UniProt P08588); assay: Radioligand displacement, β1; assay type: binding
Sequence of β1 (P08588 whole entry): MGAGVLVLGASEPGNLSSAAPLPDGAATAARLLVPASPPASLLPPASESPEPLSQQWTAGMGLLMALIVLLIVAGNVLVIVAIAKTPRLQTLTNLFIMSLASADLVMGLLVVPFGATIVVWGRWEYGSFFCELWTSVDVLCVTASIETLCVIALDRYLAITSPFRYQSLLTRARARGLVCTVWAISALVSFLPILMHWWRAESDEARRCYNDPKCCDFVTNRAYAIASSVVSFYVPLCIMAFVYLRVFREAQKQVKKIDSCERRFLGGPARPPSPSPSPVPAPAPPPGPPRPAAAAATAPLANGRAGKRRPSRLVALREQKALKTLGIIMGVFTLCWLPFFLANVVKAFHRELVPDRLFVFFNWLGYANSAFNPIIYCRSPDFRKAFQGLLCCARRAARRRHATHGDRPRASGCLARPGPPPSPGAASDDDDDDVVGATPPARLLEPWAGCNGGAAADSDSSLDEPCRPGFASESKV

5-HT1d = 5-HT1d (Homo sapiens, UniProt P28221); assay: Radioligand displacement, 5-HT1d
Sequence of 5-HT1d (P28221 whole entry): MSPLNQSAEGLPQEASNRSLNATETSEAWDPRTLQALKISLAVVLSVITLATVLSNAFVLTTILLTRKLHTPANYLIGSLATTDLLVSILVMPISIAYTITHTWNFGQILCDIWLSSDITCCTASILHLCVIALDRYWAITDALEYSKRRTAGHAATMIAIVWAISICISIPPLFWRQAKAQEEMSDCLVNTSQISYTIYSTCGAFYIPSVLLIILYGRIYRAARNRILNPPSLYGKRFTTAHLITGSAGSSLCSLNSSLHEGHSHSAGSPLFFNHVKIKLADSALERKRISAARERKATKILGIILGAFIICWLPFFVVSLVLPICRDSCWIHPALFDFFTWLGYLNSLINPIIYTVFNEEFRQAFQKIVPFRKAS

[2] = biological target: T4, α2C-adrenoceptor (α2C-AR) (Homo sapiens, UniProt P18825); assay: Radioligand displacement, α2C
T4 sequence (P18825 1-462): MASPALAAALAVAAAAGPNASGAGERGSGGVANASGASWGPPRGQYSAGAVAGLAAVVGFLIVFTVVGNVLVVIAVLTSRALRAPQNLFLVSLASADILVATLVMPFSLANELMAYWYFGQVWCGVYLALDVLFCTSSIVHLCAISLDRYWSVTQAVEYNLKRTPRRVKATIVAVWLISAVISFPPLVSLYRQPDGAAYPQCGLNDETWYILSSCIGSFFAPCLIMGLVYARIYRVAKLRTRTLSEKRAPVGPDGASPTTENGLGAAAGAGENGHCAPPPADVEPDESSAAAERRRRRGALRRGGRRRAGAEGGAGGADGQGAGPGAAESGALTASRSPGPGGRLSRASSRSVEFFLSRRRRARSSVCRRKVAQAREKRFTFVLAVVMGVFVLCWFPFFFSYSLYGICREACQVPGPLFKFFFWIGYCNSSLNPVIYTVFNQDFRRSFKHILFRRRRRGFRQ

5-HT1b = 5-HT1b (Homo sapiens, UniProt P28222); assay: Radioligand displacement, 5-HT1b; assay type: binding
Sequence of 5-HT1b (P28222 whole entry): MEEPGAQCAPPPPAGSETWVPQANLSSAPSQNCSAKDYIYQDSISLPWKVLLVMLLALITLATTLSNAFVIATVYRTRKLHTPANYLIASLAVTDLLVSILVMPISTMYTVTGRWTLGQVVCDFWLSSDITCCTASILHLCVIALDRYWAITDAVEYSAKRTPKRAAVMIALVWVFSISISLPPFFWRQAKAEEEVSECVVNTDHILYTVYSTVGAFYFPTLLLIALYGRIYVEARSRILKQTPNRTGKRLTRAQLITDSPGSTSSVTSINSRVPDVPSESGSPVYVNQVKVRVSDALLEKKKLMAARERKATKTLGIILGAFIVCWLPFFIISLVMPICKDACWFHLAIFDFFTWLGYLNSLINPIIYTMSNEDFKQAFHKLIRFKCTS

α2A = biological target: T5, α2A (Homo sapiens, UniProt P08913); assay: Radioligand displacement, α2A
T5 sequence (P08913 1-465): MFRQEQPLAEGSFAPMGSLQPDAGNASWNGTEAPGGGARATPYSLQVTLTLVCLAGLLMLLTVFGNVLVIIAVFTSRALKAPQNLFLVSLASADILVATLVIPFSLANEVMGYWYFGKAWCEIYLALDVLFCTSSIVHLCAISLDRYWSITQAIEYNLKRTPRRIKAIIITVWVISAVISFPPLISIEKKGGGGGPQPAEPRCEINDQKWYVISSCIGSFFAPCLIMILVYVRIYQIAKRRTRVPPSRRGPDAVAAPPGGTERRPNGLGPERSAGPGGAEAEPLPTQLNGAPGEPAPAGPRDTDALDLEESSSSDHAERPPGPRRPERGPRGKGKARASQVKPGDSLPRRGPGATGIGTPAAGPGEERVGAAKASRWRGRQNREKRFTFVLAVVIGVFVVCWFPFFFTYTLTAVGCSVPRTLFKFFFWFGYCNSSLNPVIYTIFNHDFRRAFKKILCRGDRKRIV

[3] = [3H] radioligand Rauwolscine, Human, Cloned
[4] = K i, D5, radioligand displacement (Table 1)
[5] = Ki, [3H] radioligand SCH23390, Human, Cloned
[6] = Ki, [3H] radioligand Prazosin, Human, Cloned
[7] = Ki, [3H] radioligand GR125743, Human, Cloned
[8] = K i, α2C, radioligand displacement (Table 1)
[9] = Ki, [3H] radioligand Rauwolscine, Human, Cloned
[10] = [3H] radioligand SCH23390, Human, Cloned, read-out: Ki

SMILES	pKi (α2B; [3])	pKi (D5; [4])	pKi (D5; [5])	pKi (GABAA)	pKi (GABAA (BZP))	pKi (M3)	pKi (σ2)	pKi (D1)	pKi (DAT)	pKi (5-HT7)	pKi [1, 6]	pKi (β1)	pKi (5-HT1d; [7])	pKi [2, 8]	pKi [2, 9]	pKi (5-HT1b)	other results
N=C(N)Nc1ccc2[nH]c3c(c2c1)C[C@@]1(O)[C@H]2Cc4ccc(O)c5c4[C@@]1(CCN2CC1CC1)[C@H]3O5 [GNTI, 5′-guanidinonaltrindole]	≤ 5.00	5.09	5.09	≤ 5.00	≤ 5.00	≤ 5.00	≤ 5.00	≤ 5.00	≤ 5.00	≤ 5.00	5.02	≤ 5.00	≤ 5.00	5.66	5.65	≤ 5.00	modulation of the displacement of [125I]HEAT by noradrenaline ([1]; 10 µM GNTI): did not detectably modulate; pKi ([1]; Ki, binding curve File S1, Alpha1A Receptor, [125I]HEAT (0.03 nM), for 14674 the curve marked old): 5.02; pKi ([2]; Ki, binding curve File S1, Alpha2C Receptor, [125I]Clonidine (0.12 nM), Alpha2 Binding Buffer): 5.65; pKi (α2A; [9]): ≤ 5.00
CC(C)[C@@H](CN1CC[C@@](C)(c2cccc(O)c2)[C@@H](C)C1)NC(=O)[C@H]1Cc2ccc(O)cc2CN1 [JDTic]	≤ 5.00			≤ 5.00	≤ 5.00												pKi (D5; [10]): ≤ 5.00; pKi (M3; [3H] radioligand QNB, Human, Cloned, read-out: Ki): ≤ 5.00; pKi (σ2; [3H] radioligand DTG, Rat, PC12, read-out: Ki): ≤ 5.00; pKi (D1; [10]): ≤ 5.00; pKi (DAT; K i, DAT, radioligand displacement (Table 1)): 5.36; pKi (DAT; Ki, [3H] radioligand WIN35428, Human, Cloned): 5.36; pKi (DAT; Ki, binding curve File S1, Dopamine Transporter, [3H]WIN35428 (3 nM), Transporter Binding Buffer): 5.36; pKi (5-HT7; [3H] radioligand LSD, Human, Cloned, read-out: Ki): ≤ 5.00; pKi ([1]; read-out: Ki): ≤ 5.00; pKi (β1; [3H] radioligand CGP12177, Human, Heart, read-out: Ki): ≤ 5.00; pKi (5-HT1d): ≤ 5.00; pKi [2]: ≤ 5.00; pKi (5-HT1b; [3H] radioligand GR125743, Human, Cloned, read-out: Ki): ≤ 5.00; pKi (α2A): ≤ 5.00
Oc1ccc2c3c1O[C@H]1c4[nH]c5c(c4C[C@@]4(O)[C@@H](C2)N(CC2CC2)CC[C@]314)C[C@@]1(O)[C@H]2Cc3ccc(O)c4c3[C@@]1(CCN2CC1CC1)[C@H]5O4 [nor-BNI, Nor-binaltorphimine]	5.84	5.41	5.41	≤ 5.00	≤ 5.00	≤ 5.00	≤ 5.00	≤ 5.00	≤ 5.00	≤ 5.00	≤ 5.00	≤ 5.00	5.95	6.20	6.20	≤ 5.00	pKi (α2B; binding curve File S1, Alpha2B Receptor, [125I]Clonidine (0.12 nM), Alpha2 Binding Buffer): 5.84; pKi (α2B; α2B, radioligand displacement (Table 1)): 5.82; pKi (D5; Ki, binding curve File S1, Dopamine5 Receptor, [3H]SCH23390 (1.2 nM), Dopamine Binding Buffer): 5.41; pKi (5-HT1d; K i, 5-HT1d, radioligand displacement (Table 1)): 5.96; pKi (α2A; K i, α2A, radioligand displacement (Table 1)): 5.31
